According to article PMC8347148, “An Evaluation of Human Induced Pluripotent Stem Cells to Test for Cardiac Developmental Toxicity” (International Journal of Molecular Sciences, 2021):
Converted amounts (≈) assume the structure as drawn. Like-named read-outs stand apart in the source and are kept apart here.

How the values were obtained:
[1] = test system: differentiating hiPSCs (hiPSC-cardiomyocytes); assay: hiPSC-EST cardiac viability assay (MTT); type: cell-based, human; conditions: for IC50: Homo sapiens, 600 h
Experimental: 5-flurorouracil (5-FU), all-trans retinoic acid (atRA), and penicillin G (PenG) were selected from a subset of chemicals used in the original EST validation study. 5-FU and atRA were selected as positive test compounds due to their established embryotoxic potential while PenG was used as a negative control. All chemicals were purchased from Sigma. Stock solutions were prepared in DMSO and filtered through a 0.2 micron Acrodisc® PSF Syringe Filter (Pall Corporation, Port Washington, NY, USA), aliquoted into sterile microcentrifuge tubes and stored at −20 °C until use. Test chemicals were serially diluted to final concentrations in differentiation media. Cardiogenic cultures were treated with designated chemicals (or solvent only) through day 25 of differentiation and hFF cultures were treated with each compound for a 25 day duration period. Compounds were replenished with each medium change.
A University of Kentucky smoking machine was used to produce smoke extract solutions from commercially available conventional Marlboro Red 100 brand cigarettes as previously described. The smoking machine took a 2.2 s puff of mainstream (MS) smoke every minute. Smoke solution concentrations were made in puff equivalents (PE), which are the number of cigarette puffs dissolved in 1 mL of medium. MS smoke solutions were produced by pulling 30 puffs of MS smoke through 10 mL of DMEM. Resulting 3 PE smoke extracts were filtered through a 0.2 micron Acrodisc® PSF Syringe Filter (Pall Corporation, Port Washington, NY, USA), aliquoted into sterile microcentrifuge tubes, and stored at −80 °C until use. Serial dilutions were performed in differentiation medium to reach desired final exposure concentrations. Cardiogenic cultures were treated with smoke solutions through 25 days of differentiation. Smoke solutions were replenished with each medium change.
A 10% (w/v) Camel Snus extract was prepared as previously described. Ten grams of Snus was added to 85 mL of DMEM and allowed to incubate at 37 °C for 2 h. This initial extract solution was centrifuged for 10 min at 4500× g. Supernatant from the first round of centrifugation was then centrifuged again at 13,000× g for 1 h. The resulting supernatant was collected and pH adjusted to 7.4. 15 mL of FBS was added to the pH-adjusted Snus extract to produce a 10% stock solution of Snus tobacco extract (STE). The stock solution was then sterile-filtered with a 0.22 μm vacuum filter system. STE was aliquoted into sterile microcentrifuge tubes and stored at −80 °C until use. Serial dilutions were performed in differentiation medium to reach desired final exposure concentrations. Cardiogenic cultures were treated with STE through 25 days of differentiation. STE was replenished with each medium change.
Cardiomyocyte survival following concurrent exposure to each compound was evaluated by 3-[4,5-dimethylthiazol-2-yl]-2,5-diphenylterazolium bromide (MTT) assay from three independent differentiations each carried out in technical quintuplicate as previously described. On day 25 of differentiation, cells were incubated with MTT (5 mg/mL) for 2 h at 37 °C. MTT supernatant was removed and replaced with a desorb solution of 0.7% SDS in 2-propanol. The absorbance of the solution was measured at 570 nm in an iMark™ microplate reader (Bio-Rad) with 655 nm as a reference wavelength. Here, mitochondrial dehydrogenase activity on the MTT in solution is directly proportional to a blue-purple product that is detected at 570 nm.
(§1) Half-maximal inhibitory compound doses of differentiation (ID50) and cytotoxicity (IC50) were determined from concentration-response curves using GraphPad Prism.

mESCs = test system: mESCs; set-up: method as in PMID 14761682, PMID 21720311; conditions: EST prediction model; cited from earlier work
3T3 fibroblast cells = test system: 3T3 fibroblast cells; set-up: method as in PMID 14761682; conditions: mESC-EST, 3T3 viability; previously obtained in the authors' lab; cited from earlier work
TBX5 mRNA expression = assay: day 10 qPCR of TBX5 in differentiating hiPSCs; type: cell-based, human; conditions: for hiPSCs (d10 TBX5) ID50: day 10, 50% reduction in TBX5 gene expression vs control
Description: One of the main critiques of traditional developmental toxicity evaluations is the length of time and technical training required to successfully complete assays. As such, a shorter, quantifiable, and correct in vitro embryotoxicity assessment could improve throughput without sacrificing accuracy. Given the correct predictions achieved with contraction counts described above, we next investigated if our approach could be modified with a shorter, qPCR-based endpoint to determine differentiation inhibition. Here, we selected two cardiogenesis-specific transcription factors, TBX5 and MEF2c, to determine if the adverse differentiation outcomes would already be detectable as changes in TBX5 and MEF2c expression on day 10 of differentiation.
RNA was extracted from three wells per biological replicate using the protocol from NucleoSpin RNA II kit (Macherey-Nagel, Mountain View, CA, USA) and pooled. RNA from three independent differentiations was then quantified using a NanoDrop® 1000 spectrophotometer (ThermoFisher Scientific, Grand Island, NY, USA) at 260 nm. 25 ng of total RNA was used as a template for cDNA synthesis with a mastermix including 5 µL 5× reaction buffer, 1.25 µL 10 mM dNTPs, 1.25 µL 400 U/µL RNase inhibitor, 0.1 µL 200 U/µL reverse transcriptase, 0.1 µL 3 µg/µL random primer, and 1.5 µL DEPC H2O for a total of 25 µL per reaction. 25 ng cDNA transcripts were used for quantitative polymerase chain reaction (qPCR) SYBR green technology on the MyiQ cycler (Bio-Rad). The reactions were setup for 10 min of denaturing at 94 °C (initial), followed by 40 cycles of denaturing at 94 °C, and annealing at 60 °C each 45 s. The n-fold expression in target samples was calculated with the ΔΔCT method by standardizing Ct values to GAPDH expression. Primer sequences for human GAPDH were 5′-[…]-3′ and 5′-[…]-3′. Target genes were cardiogenic markers TBX5 and MEF2c. Primer sequences for human TBX5 were 5′-[…]-3′ and 5′-[…]-3′ and primer sequences for human MEF2c were 5′-[…]-3′ and 5′-[…]-3′ [27].
as §1

[2] = read-out: hiPSC IC50, day 25, MTT, 50% inhibition of viable cells vs control
[3] = day 25, MTT, 50% inhibition of viable cells vs control

SMILES	IC50 [1, 2]	concentrations with reductions in hiPSC cell viability ([1]; MTT, Figure 4A)	hiPSC IC50 [1, 3]	mESC Biostatistical Embryotoxicity Classification (mESCs)	mESCs 3T3 IC50 (3T3 fibroblast cells)	concentrations with dramatically reduced d10 TBX5 mRNA expression (TBX5 mRNA expression; day 10)	hiPSCs (d10 TBX5) ID50 (TBX5 mRNA expression)	effect on hiPSC cell viability ([1]; tested concentration range)	effect on TBX5 mRNA expression (TBX5 mRNA expression; day 10)	IC50 ([1]; day 25, MTT, 50% inhibition of viable cells vs control, read-out: hiPSC IC50)	concentrations with significant upregulation in TBX5 mRNA expression (TBX5 mRNA expression; day 10)
O=c1[nH]cc(F)c(=O)[nH]1 [5-Fluorouracil, 5-fluorouracil]	4.7e-05 µg/mL (≈ 0.000361 µM)	above 1 × 10^−6 μg/mL	4.726e-05 µg/mL	Strongly embryotoxic	0.05 µg/mL	above 1 × 10^−4 μg/mL	0.000179 µg/mL				
CC1(C)S[C@@H]2[C@H](NC(=O)Cc3ccccc3)C(=O)N2[C@H]1C(=O)O [Penicillin G, penicillin G]	< 1000 µg/mL		>1000 µg/mL	Not embryotoxic	1000 µg/mL		>1000 µg/mL	did not find any reduced cell survival	did not significantly impact TBX5 mRNA expression		
CC1=C(/C=C/C(C)=C/C=C/C(C)=C/C(=O)O)C(C)(C)CCC1 [All-Trans Retinoic Acid, all-trans retinoic acid]				Strongly embryotoxic	2.7 µg/mL		3.28e-06 µg/mL			3.64 µg/mL (≈ 12.1 µM)	lower than 1 × 10^−6 μg/mL
